Assay results from patent US10112926B2 (priority 2014, dated 2018).
pIC50: −log10 of the molar value. Counter-ions that a name gives are not always drawn.

Tests used:
Vps34 = Vps34 (Homo sapiens (Human), UniProt Q8NEB9); settings: read-out: Assay C VPS34 IC50
PI 4-kinase beta = PI 4-kinase beta (Homo sapiens (Human), UniProt Q9UBF8); settings: read-out: Assay D PI4Kβ IC50
PI 3-kinase beta = PI 3-kinase beta (Homo sapiens (Human), UniProt P42338); settings: read-out: Assay B PI3Kβ IC50
mTOR = mTOR (Homo sapiens (Human), UniProt P42345); settings: read-out: Assay G mTOR IC50
PI 3-kinase alpha = PI 3-kinase alpha (Homo sapiens (Human), UniProt P42336); settings: read-out: Assay A PI3Kα IC50
Sequence of PI 3-kinase alpha (P42336 whole entry, looked up): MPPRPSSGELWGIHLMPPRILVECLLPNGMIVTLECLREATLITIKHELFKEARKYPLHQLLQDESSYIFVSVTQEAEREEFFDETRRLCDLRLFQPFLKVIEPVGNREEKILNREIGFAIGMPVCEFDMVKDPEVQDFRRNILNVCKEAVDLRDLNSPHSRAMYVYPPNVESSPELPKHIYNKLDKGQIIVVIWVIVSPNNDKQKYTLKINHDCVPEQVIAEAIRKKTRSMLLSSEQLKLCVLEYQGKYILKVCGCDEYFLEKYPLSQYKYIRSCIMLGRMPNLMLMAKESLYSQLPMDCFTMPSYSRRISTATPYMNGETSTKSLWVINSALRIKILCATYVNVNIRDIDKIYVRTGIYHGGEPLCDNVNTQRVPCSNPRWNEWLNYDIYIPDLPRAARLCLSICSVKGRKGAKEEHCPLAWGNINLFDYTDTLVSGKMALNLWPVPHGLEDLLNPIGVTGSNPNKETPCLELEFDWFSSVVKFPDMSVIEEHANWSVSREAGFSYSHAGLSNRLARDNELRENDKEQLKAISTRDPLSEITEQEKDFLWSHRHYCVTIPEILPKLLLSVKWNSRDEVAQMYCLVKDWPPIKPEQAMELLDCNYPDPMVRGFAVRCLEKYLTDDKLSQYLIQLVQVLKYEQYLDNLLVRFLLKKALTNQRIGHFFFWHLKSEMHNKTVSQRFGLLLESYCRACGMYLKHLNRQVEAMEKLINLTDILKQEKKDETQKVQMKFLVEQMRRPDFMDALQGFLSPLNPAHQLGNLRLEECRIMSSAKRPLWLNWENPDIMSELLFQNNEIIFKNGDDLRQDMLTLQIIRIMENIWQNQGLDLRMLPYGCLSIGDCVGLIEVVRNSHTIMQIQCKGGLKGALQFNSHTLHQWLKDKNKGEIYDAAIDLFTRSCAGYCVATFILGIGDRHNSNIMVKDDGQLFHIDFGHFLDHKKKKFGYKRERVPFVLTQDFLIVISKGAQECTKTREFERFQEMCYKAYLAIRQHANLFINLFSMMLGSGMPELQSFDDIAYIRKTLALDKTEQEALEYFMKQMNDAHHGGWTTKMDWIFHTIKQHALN
Sequence of PI 3-kinase alpha (P27986 whole entry partner, looked up): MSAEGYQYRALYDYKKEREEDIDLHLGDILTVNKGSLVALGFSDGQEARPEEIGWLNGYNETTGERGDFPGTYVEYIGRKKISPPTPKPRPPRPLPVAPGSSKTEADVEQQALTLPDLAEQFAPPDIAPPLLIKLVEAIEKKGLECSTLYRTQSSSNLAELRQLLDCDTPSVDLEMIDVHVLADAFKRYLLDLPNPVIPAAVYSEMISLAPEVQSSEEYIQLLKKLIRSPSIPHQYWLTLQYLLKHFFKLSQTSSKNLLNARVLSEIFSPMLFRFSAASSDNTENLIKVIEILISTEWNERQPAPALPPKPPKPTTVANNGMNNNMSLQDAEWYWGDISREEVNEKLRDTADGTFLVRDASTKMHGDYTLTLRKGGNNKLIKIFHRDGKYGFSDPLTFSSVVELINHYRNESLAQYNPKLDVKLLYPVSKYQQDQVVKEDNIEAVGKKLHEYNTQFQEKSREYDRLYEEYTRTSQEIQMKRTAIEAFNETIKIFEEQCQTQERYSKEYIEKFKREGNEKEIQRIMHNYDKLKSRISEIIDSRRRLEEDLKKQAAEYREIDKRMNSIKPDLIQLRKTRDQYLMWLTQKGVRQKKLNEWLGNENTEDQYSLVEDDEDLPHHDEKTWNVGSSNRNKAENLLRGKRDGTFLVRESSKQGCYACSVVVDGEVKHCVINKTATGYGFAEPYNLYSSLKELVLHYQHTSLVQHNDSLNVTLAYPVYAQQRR

Sequence of PI 3-kinase beta (P42338 whole entry, looked up): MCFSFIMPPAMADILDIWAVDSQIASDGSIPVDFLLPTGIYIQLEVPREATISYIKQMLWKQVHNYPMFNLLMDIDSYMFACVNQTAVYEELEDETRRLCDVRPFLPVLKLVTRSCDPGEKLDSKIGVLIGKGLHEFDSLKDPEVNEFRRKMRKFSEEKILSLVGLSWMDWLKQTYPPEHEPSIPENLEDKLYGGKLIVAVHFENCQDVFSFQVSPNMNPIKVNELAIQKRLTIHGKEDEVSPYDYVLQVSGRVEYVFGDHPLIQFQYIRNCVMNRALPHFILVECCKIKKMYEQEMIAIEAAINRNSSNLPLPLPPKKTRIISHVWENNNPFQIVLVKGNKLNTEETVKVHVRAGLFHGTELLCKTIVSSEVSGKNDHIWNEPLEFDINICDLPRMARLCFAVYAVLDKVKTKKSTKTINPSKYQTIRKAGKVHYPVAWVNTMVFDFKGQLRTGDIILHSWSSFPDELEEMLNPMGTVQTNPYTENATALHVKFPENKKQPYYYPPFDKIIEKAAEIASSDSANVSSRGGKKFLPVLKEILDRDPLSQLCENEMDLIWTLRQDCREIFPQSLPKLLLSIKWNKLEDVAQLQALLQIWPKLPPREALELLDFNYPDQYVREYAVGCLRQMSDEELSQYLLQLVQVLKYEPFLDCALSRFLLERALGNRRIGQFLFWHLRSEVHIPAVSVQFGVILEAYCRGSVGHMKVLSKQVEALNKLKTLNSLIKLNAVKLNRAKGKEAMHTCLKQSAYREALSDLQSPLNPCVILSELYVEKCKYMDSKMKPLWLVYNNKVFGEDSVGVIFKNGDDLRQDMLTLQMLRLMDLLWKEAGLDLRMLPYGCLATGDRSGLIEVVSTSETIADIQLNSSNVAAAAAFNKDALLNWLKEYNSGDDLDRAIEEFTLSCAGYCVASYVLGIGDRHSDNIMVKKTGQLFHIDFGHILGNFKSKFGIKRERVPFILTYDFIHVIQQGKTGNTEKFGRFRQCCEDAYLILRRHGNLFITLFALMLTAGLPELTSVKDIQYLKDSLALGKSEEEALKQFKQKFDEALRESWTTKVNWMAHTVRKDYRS
Sequence of PI 3-kinase beta (P27986 whole entry partner, looked up): as the sequence (P27986 whole entry partner, looked up) above
Sequence of Vps34 (Q8NEB9 whole entry): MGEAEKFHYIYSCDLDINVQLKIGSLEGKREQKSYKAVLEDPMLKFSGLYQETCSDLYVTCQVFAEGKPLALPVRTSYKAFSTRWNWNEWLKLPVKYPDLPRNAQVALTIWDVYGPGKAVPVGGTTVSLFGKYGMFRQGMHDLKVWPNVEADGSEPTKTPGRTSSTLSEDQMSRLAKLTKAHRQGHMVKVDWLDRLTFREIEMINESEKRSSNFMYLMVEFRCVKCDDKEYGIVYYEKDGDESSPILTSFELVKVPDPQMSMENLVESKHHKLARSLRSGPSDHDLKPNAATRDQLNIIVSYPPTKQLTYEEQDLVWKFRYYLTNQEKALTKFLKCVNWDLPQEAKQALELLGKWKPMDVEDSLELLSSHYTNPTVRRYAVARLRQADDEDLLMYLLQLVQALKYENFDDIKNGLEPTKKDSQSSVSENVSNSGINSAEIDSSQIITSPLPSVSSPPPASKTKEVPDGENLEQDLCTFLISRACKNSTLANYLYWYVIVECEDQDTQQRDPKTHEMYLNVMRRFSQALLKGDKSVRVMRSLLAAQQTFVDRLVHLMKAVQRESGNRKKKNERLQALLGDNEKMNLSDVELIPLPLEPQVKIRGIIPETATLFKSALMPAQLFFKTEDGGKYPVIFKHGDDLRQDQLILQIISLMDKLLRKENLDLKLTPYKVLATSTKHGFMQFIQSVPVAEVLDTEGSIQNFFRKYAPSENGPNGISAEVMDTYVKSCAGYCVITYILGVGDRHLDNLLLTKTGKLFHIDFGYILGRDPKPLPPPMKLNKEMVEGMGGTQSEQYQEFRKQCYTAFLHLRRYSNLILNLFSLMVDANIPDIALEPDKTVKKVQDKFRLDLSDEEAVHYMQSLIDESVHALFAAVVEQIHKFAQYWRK
Sequence of PI 4-kinase beta (Q9UBF8 whole entry): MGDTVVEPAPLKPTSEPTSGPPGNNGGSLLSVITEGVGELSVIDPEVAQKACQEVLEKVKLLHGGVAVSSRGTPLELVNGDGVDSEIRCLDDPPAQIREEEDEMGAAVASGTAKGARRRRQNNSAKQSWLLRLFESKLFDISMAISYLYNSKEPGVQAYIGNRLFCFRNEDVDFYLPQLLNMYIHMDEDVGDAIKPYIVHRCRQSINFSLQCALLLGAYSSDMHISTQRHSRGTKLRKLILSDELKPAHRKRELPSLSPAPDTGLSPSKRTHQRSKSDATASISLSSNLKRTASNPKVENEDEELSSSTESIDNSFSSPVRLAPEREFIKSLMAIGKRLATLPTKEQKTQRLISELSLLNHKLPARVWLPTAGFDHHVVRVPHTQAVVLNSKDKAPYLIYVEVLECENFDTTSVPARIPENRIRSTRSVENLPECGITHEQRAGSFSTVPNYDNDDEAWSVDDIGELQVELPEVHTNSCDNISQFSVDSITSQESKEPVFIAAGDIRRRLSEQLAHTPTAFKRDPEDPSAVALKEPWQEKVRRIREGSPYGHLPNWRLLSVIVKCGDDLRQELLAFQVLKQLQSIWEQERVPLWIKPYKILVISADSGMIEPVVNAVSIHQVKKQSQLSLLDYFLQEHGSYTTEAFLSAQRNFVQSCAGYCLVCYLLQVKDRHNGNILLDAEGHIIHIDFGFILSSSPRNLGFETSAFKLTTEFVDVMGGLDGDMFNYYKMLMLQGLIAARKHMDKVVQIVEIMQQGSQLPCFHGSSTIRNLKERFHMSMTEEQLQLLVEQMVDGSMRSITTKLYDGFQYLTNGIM

Structure (SMILES)	pIC50 (Vps34)	pIC50 (PI 4-kinase beta)	pIC50 (PI 3-kinase beta)	pIC50 (mTOR)	pIC50 (PI 3-kinase alpha)
Cc1cc(-c2cc(-c3cc(S(=O)(=O)NC[C@@H]4CCCO4)ccc3C)cnc2N)on1 [Example 40, (S)-3-(6-Amino-5-(3-methylisoxazol-5-yl)pyridin-3-yl)-4-methyl-N-((tetrahydrofuran-2-yl)methyl)benzenesulfonamide]	< 5.00	5.49	5.40	–	–
Cc1cnn(-c2cc(-c3cc(S(=O)(=O)NCC(C)(C)O)ccc3C)cnc2N)c1 [Example 60, 3-(6-Amino-5-(4-methyl-1H-pyrazol-1-yl)pyridin-3-yl)-N-(2-hydroxy-2-methylpropyl)-4-methylbenzenesulfonamide]	< 5.00	–	< 5.00	< 5.00	–
Cc1ncc(-c2cc(-c3cc(S(=O)(=O)NCC4(O)CCOCC4)ccc3C)cnc2N)o1 [Example 114.3, 3-(6-amino-5-(2-methyloxazol-5-yl)pyridin-3-yl)-N-((4-hydroxytetrahydro-2H-pyran-4-yl)methyl)-4-methylbenzenesulfon-amide]	< 5.00	5.09	5.08	–	6.23
Cc1cc(-c2cc(-c3cc(S(=O)(=O)NCC(F)(F)F)ccc3C)cnc2N)on1 [Example 39, 3-(6-Amino-5-(3-methylisoxazol-5-yl)pyridin-3-yl)-4-methyl-N-(2,2,2-trifluoroethyl)benzenesulfonamide]	< 5.00	5.89	5.43	–	6.35
Cc1ncc(-c2cc(-c3cc(S(=O)(=O)NCCO)ccc3C)cnc2N)s1 [Example 83.5, 3-(6-Amino-5-(2-methylthiazol-5-yl)pyridin-3-yl)-N-(2-hydroxyethyl)-4-methylbenzenesulfonamide]	5.28	5.55	5.47	–	6.37
Cc1cc(-c2cc(-c3cc(S(=O)(=O)N[C@H]4CC[C@H](O)CC4)ccc3C)cnc2N)on1 [Example 5.4, trans 3-(6-Amino-5-(3-methylisoxazol-5-yl)pyridin-3-yl)-N-(-4-hydroxycyclohexyl)-4-methylbenzenesulfon-amide hydrochloride]	< 5.00	–	–	–	6.60
Cc1ncc(-c2cc(-c3cc(S(=O)(=O)NCC4CCCOC4)ccc3C)cnc2N)o1 (centres unmarked) [Example 104.8, 3-(6-amino-5-(2-methyloxazol-5-yl)pyridin-3-yl)-4-methyl-N-((tetrahydro-2H-pyran-3-yl)methyl)benzenesulfon-amide]	5.32	5.70	6.10	–	–
Cc1cc(-c2cc(-c3cc(S(=O)(=O)N4CC(C)(O)C4)ccc3C)cnc2N)on1 [Example 37.28, 1-((3-(6-Amino-5-(3-methylisoxazol-5-yl)pyridin-3-yl)-4-methylphenyl)sulfonyl)-3-methylazetidin-3-ol]	< 5.00	5.55	5.42	–	–
Cc1noc(-c2cc(-c3cc(S(=O)(=O)NCC(C)(C)CO)ccc3C)cnc2N)n1 [Example 37.18, 3-(6-Amino-5-(3-methyl-1,2,4-oxadiazol-5-yl)pyridin-3-yl)-N-(3-hydroxy-2,2-dimethylpropyl)-4-methylbenzenesulfonamide hydrochloride]	< 5.00	< 5.00	–	< 5.00	–
Cc1ccc(S(=O)(=O)NCC(C)(C)O)cc1-c1cnc(N)c(-c2cnn(C)n2)c1 [Example 4.4, 3-(6-amino-5-(2-methyl-2H-1,2,3-triazol-4-yl)pyridin-3-yl)-N-(2-hydroxy-2-methylpropyl)-4-methylbenzenesulfonamide hydrochloride]	< 5.00	5.09	–	< 5.00	–
CCCONS(=O)(=O)c1ccc(C)c(-c2cnc(N)c(-c3nc(C)no3)c2)c1 [Example 44, 3-(6-Amino-5-(3-methyl-1,2,4-oxadiazol-5-yl)pyridin-3-yl)-4-methyl-N-propoxybenzenesulfonamide]	< 5.00	5.45	–	< 5.00	–
CCc1cc(-c2cc(-c3cc(S(=O)(=O)NCC(C)(C)O)ccc3C)cnc2N)on1 [Example 4.6, 3-(6-Amino-5-(3-ethylisoxazol-5-yl)pyridin-3-yl)-N-(2-hydroxy-2-methylpropyl)-4-methyl-benzenesulfonamide hydrochloride]	< 5.00	5.57	–	5.85	–
Cc1ncc(-c2cc(-c3cc(S(=O)(=O)NCC4(O)CC4)ccc3C)cnc2N)o1 [Example 114.1, 3-(6-amino-5-(2-methyloxazol-5-yl)pyridin-3-yl)-N-((1-hydroxycyclopropyl)methyl)-4-methylbenzenesulfon-amide]	5.47	5.35	–	–	6.60
Cc1noc(-c2cc(-c3cc(S(=O)(=O)NCCC(F)(F)F)ccc3C)cnc2N)n1 [Example 48, 3-(6-Amino-5-(3-methyl-1,2,4-oxadiazol-5-yl)pyridin-3-yl)-4-methyl-N-(3,3,3-trifluoropropyl)benzenesulfonamide]	< 5.00	5.22	–	< 5.00	–
Cc1ccc(S(=O)(=O)N[C@H]2CC[C@H](O)CC2)cc1-c1cnc(N)c(-c2cnn(CC(F)(F)F)c2)c1 [Example 4.2, trans 3-(6-Amino-5-(1-(2,2,2-trifluoroethyl)-1H-pyrazol-4-yl)pyridin-3-yl)-N-(4-hydroxycyclohexyl)-4-methyl-benzenesulfonamide]	< 5.00	6.19	–	5.89	–
Cc1noc(-c2cc(-c3cc(S(=O)(=O)NCC4(CO)CCC4)ccc3C)cnc2N)n1 [Example 37.26, 3-(6-Amino-5-(3-methyl-1,2,4-oxadiazol-5-yl)pyridin-3-yl)-N-((1-(hydroxymethyl)cyclobutyl)methyl)-4-methylbenzenesulfonamide]	< 5.00	< 5.00	–	< 5.00	–
Cc1ccc(S(=O)(=O)NCCC(C)(C)O)cc1-c1cnc(N)c(-c2ccncc2)c1 [Example 18, 3-(2-Amino-[3,4′]bipyridinyl-5-yl)-N-(3-hydroxy-3-methyl-butyl)-4-methyl-benzenesulfonamide]	< 5.04	< 5.04	–	< 5.04	–
Cc1ccc(S(=O)(=O)NCC(C)(C)O)cc1-c1cnc(N)c(-c2nc(C3CC3)no2)c1 [Example 80, 3-(6-Amino-5-(3-cyclopropyl-1,2,4-oxadiazol-5-yl)pyridin-3-yl)-N-(2-hydroxy-2-methylpropyl)-4-methylbenzenesulfonamide hydrochloride]	< 5.00	5.45	–	< 5.00	–
Cc1ncc(-c2cc(-c3cc(S(=O)(=O)NCCCO)ccc3C)cnc2N)s1 [Example 9, 3-[6-Amino-5-(2-methyl-thiazol-5-yl)-pyridin-3-yl]-N-(3-hydroxy-propyl)-4-methyl-benzenesulfonamide]	6.05	5.72	–	5.23	–
Cc1noc(-c2cc(-c3cc(S(=O)(=O)NCC(C)(C)O)c(C)cc3F)cnc2N)n1 [Example 113, 5-(6-amino-5-(3-methyl-1,2,4-oxadiazol-5-yl)pyridin-3-yl)-4-fluoro-N-(2-hydroxy-2-methylpropyl)-2-methylbenzenesulfonamide]	< 5.00	–	5.05	–	5.94
Cc1noc(-c2cc(-c3cc(S(=O)(=O)N4CC(CO)C4)ccc3C)cnc2N)n1 [Example 37.39, (S)-((3-(6-Amino-5-(3-methyl-1,2,4-oxadiazol-5-yl)pyridin-3-yl)-4-methylphenyl)sulfonyl)azetidin-3-yl)methanol]	< 5.00	5.32	–	< 5.00	–
